According to patent US20230183215A1, “Notch Inhibitors and Uses Thereof” (StemSynergy Therapeutics, Inc., priority 2020, published 2023):
Counter-ions that a name gives are not always drawn.

Assays:
[1] = target: T1, Notch1 (Homo sapiens, UniProt P46531); assay: Notch1 Reporter Assay (CSL-responsive luciferase, doxycycline-induced Notch-ICD in 293A cells); type: cell-based; conditions: 25 ng/mL Dox, 24 h, luciferase normalized to cell viability
T1 construct: pLV[Tet]-Puro-TRE3G>Notch1-ICD; expressed in transfected cells; host or cells: 293A cells
T1 sequence (P46531 1754-2555 limits assumed): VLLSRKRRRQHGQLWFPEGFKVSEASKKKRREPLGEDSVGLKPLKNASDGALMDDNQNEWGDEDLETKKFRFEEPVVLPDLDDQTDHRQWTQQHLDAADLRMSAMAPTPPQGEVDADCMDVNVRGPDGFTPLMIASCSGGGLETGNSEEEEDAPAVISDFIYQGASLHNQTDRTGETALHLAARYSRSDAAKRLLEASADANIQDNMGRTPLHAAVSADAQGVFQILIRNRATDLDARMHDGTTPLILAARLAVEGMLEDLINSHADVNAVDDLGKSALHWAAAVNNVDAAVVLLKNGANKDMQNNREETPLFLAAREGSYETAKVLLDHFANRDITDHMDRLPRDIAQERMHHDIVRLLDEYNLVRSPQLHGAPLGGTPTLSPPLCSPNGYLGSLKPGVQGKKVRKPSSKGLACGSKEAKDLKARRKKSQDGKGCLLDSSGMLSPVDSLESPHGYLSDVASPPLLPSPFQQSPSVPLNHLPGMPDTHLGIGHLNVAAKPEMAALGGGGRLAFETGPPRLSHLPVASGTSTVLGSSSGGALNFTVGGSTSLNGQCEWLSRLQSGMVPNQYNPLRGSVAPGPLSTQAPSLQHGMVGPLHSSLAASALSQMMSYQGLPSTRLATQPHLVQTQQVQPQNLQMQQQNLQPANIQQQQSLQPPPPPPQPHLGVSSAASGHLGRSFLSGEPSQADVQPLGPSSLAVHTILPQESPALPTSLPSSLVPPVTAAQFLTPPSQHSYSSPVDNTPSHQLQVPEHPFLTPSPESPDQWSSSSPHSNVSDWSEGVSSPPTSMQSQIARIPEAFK
Procedure, shortened: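 293A cells with Tet-On 3G, Dox-inducible Notch-ICD and CSL-responsive luciferase reporter were treated with compound plus 25 ng/mL Dox (final, 0.25% DMSO) for 24 h. Luciferase normalized to CellTiter-Glo viability, scaled to DMSO wells; IC50 by 4-parameter nonlinear regression.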

[2] = test system: OE33 Esophageal Adenocarcinoma cell line; assay: OE33 Colony Formation Assay; type: cell-based; conditions: Homo sapiens, 200 cells/well, compound every 48 hours for 7 days, CellTiter-Glo
Method: OE33 Colony Formation Assay:
The OE33 Esophageal Adenocarcinoma cell line was cultured and plated into 96-well tissue culture plates under sparse conditions (200 cells/well). Test compounds were serially diluted in DMSO and then into culture media (final DMSO concentration=0.1%). Compound/media was then added to cells every 48 hours for a total of 7 days. Clonogenic growth was assessed using the CellTiter-Glo reagent, according to manufacturer (Promega) specifications. Percent inhibition was calculated as the percent of luminescence normalized to control (0.1% DMSO) wells. Nonlinear regression curve fitting was performed using GraphPad Prism software to determine EC50's.

Row | EC50 [2] | SMILES | IC50 [1]
1 | 4.6 µM | COc1cc(-c2cc(C(F)(F)F)cc3c2n(C)c(=O)n3CC(=O)N(C)c2ccc(F)cc2)cc(F)c1OCc1nnc[nH]1 [compound 440, 2-(4-(4-((4H-1,2,4-triazol-3-yl)methoxy)-3-fluoro-5-methoxyphenyl)-3-methyl-2-oxo-6-(trifluoromethyl)-2,3-dihydro-1H-benzo[d]imidazol-1-yl)-N-(4-fluorophenyl)-N-methylacetamide hydrochloride] | 3.1 µM
2 | 2.8 µM | COc1cc(-c2cc(C(F)(F)F)cc3c2n(C)c(=O)n3CC(=O)N(C)c2ccc(F)cc2F)cc(F)c1OCc1nnc[nH]1 [compound 447, 2-(4-(4-((4H-1,2,4-triazol-3-yl)methoxy)-3-fluoro-5-methoxyphenyl)-3-methyl-2-oxo-6-(trifluoromethyl)-2,3-dihydro-1H-benzo[d]imidazol-1-yl)-N-(2,4-difluorophenyl)-N-methylacetamide hydrochloride] | 3.3 µM
3 | 1.3 µM | COc1cc(-c2cc(C(F)(F)F)cc3c2n(C2CC2)c(=O)n3CC(=O)N(C)c2ccc(F)cc2)cc(F)c1OCc1nnc[nH]1 [compound 464, 2-(4-(4-((4H-1,2,4-triazol-3-yl)methoxy)-3-fluoro-5-methoxyphenyl)-3-cyclopropyl-2-oxo-6-(trifluoromethyl)-2,3-dihydro-1H-benzo[d]imidazol-1-yl)-N-(4-fluorophenyl)-N-methylacetamide hydrochloride] | 1.7 µM
4 | 7.1 µM | COc1cc(-c2cc(Cl)cc3c2n(C)c(=O)n3CC(=O)Nc2ccc(F)cc2)cc(F)c1OCc1nnc[nH]1 [SSTN-601, 2-(4-(4-((4H-1,2,4-triazol-3-yl)methoxy)-3-fluoro-5-methoxyphenyl)-6-chloro-3-methyl-2-oxo-2,3-dihydro-1H-benzo[d]imidazol-1-yl)-N-(4-fluorophenyl)acetamide] | 10.2 µM

Continued, compound first:

Row | SMILES | EC50 [2] | IC50 [1]
5 | COc1cccc(NC(=O)Cn2c(=O)n(C)c3c(-c4cc(F)c(OCc5nnc[nH]5)c(OC)c4)cc(C(F)(F)F)cc32)c1 [SSTN-492, 2-(4-(4-((4H-1,2,4-triazol-3-yl)methoxy)-3-fluoro-5-methoxyphenyl)-3-methyl-2-oxo-6-(trifluoromethyl)-2,3-dihydro-1H-benzo[d]imidazol-1-yl)-N-(3-methoxyphenyl)acetamide hydrochloride] | 6.6 µM | 6.3 µM
6 | COc1cc(-c2cc(OC(F)(F)F)cc3c2n(C)c(=O)n3CC(=O)Nc2ccc(F)cc2)cc(F)c1OCc1nnc[nH]1 [SSTN-600, 2-(4-(4-((4H-1,2,4-triazol-3-yl)methoxy)-3-fluoro-5-methoxyphenyl)-3-methyl-2-oxo-6-(trifluoromethoxy)-2,3-dihydro-1H-benzo[d]imidazol-1-yl)-N-(4-fluorophenyl)acetamide hydrochloride salt] | 6.6 µM | 5.8 µM
7 | COc1cc(-c2cc(C(F)(F)F)cc3c2n(C)c(=O)n3CC(=O)Nc2ccc(Cl)cc2)cc(F)c1OCc1nnc[nH]1 [SSTN-489, 2-(4-(4-((4H-1,2,4-triazol-3-yl)methoxy)-3-fluoro-5-methoxyphenyl)-3-methyl-2-oxo-6-(trifluoromethyl)-2,3-dihydro-1H-benzo[d]imidazol-1-yl)-N-(4-chlorophenyl)acetamide hydrochloride] | 2.1 µM | 7.9 µM
8 | COc1cc(-c2cc(C(F)(F)F)cc3c2n(C)c(=O)n3CC(=O)Nc2cccc(C(C)(C)C)c2)cc(F)c1OCc1nnc[nH]1 [SSTN-555, 2-(4-(4-((4H-1,2,4-triazol-3-yl)methoxy)-3-fluoro-5-methoxyphenyl)-3-methyl-2-oxo-6-(trifluoromethyl)-2,3-dihydro-1H-benzo[d]imidazol-1-yl)-N-(3-(tert-butyl)phenyl)acetamide] | 1.7 µM | 4.1 µM
9 | COc1cc(-c2cc(C(F)(F)F)cc3c2n(C)c(=O)n3CC(=O)Nc2ccc(SC)cc2)cc(F)c1OCc1nnc[nH]1 [SSTN-498, 2-(4-(4-((4H-1,2,4-triazol-3-yl)methoxy)-3-fluoro-5-methoxyphenyl)-3-methyl-2-oxo-6-(trifluoromethyl)-2,3-dihydro-1H-benzo[d]imidazol-1-yl)-N-(4-(methylthio)phenyl)acetamide hydrochloride] | 3 µM | 8.5 µM
